Results reported in patent US20250011288A1 (BRISTOL-MYERS SQUIBB COMPANY, priority 2021, published 2025).

Target: T1, human RXFP1 (Homo sapiens, UniProt Q9HBX9)
T1 construct: expressed in transfected cells
T1 sequence (Q9HBX9 1-757): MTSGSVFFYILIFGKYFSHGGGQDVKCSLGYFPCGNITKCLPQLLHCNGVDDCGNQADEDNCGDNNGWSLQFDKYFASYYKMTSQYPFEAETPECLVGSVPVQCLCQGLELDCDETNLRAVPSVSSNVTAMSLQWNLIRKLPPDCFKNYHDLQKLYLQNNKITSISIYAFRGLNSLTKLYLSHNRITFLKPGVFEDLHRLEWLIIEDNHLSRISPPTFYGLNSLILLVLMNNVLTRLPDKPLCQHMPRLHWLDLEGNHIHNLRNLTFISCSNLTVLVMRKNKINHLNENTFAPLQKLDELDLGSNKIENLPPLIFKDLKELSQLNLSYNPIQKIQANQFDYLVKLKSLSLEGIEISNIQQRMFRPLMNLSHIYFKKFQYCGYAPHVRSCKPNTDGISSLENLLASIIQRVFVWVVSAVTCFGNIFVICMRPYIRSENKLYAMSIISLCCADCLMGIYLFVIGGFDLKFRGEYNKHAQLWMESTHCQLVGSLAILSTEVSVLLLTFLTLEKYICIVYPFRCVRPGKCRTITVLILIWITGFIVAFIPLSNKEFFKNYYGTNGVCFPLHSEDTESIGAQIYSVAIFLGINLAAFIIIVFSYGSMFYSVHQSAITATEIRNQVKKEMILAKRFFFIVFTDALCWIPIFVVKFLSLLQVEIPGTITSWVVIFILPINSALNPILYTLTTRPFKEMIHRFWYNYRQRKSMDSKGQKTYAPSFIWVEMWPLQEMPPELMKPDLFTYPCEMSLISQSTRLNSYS
Experiment: human RXFP1 (hRXFP1) HEK293 cAMP assay (HTRF)
Assay type: cell-based
Conditions: HEK293 cells stably expressing human RXFP1, 30 min at room temperature
Method in brief: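 HEK293 cells stably expressing human RXFP1 (1500 cells/well) in HBSS/20 mM HEPES/0.05% BSA/0.5 mM IBMX, treated with compound (0.010 nM–50 µM final, 2% DMSO) for 30 min at room temperature. Intracellular cAMP read by HTRF; potency from 4-parameter logistic fit of cAMP versus concentration.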

| Compound | EC50 |
| --- | --- |
| COc1ncc(C2=NOC3CC(CO)CC23)cc1C(=O)N[C@H]1[C@@H](C(=O)N[C@H](C)C2(C)CC2(F)F)[C@H]2CC[C@@H]1/C2=C\C(F)(F)F (stereo partly drawn) [Example 118, N-((1R,2R,3S,4R,Z)-3-(((1R)-1-(2,2-difluoro-1-methylcyclopropyl)ethyl)carbamoyl)-7-(2,2,2-trifluoroethylidene)bicyclo[2.2.1]heptan-2-yl)-5-(5-(hydroxymethyl)-3a,5,6,6a-tetrahydro-4H-cyclopenta[d]isoxazol-3-yl)-2-methoxynicotinamide] | 4 nM |
| COc1nn(-c2cccc(C(=O)O)c2)cc1C(=O)N[C@@H]1C2CCC(/C2=C/c2ccccc2)[C@@H]1C(=O)Nc1ccc(F)c(C(F)(F)F)c1 (stereo partly drawn) [Example 54, 3-(4-{[(2R,3S,7Z)-3-{[4-fluoro-3-(trifluoromethyl)phenyl]carbamoyl}-7-(phenylmethylidene)bicyclo [2.2.1]heptan-2-yl]carbamoyl}-3-methoxy-1H-pyrazol-1-yl)benzoic acid] | 1200 nM |
| COc1cc(C(=O)N[C@@H]2C3CCC(C3=C(C)C)[C@@H]2C(=O)Nc2ccc(F)c(C(F)(F)F)c2)c(OC)nn1 (stereo partly drawn) [Example 4, N-[(2R,3S)-3-{[4-fluoro-3-(trifluoromethyl)phenyl]carbamoyl}-7-(propan-2-ylidene)bicyclo [2.2.1]heptan-2-yl]-3,6-dimethoxy-pyridazine-4-carboxamide] | 5000 nM |
| COc1ncc(-c2cc([C@H](OC(=O)NC3CC3)C(F)(F)F)ccc2F)cc1C(=O)N[C@H]1[C@@H](C(=O)Nc2ccc(F)c(C(F)(F)F)c2)[C@H]2CC[C@@H]1/C2=C\CCC(F)(F)F [Example 165, (1S)-2,2,2-trifluoro-1-[4-fluoro-3-(5-{[(1R,2R,3S,4R, 7Z)-3-{[4-fluoro-3-(trifluoromethyl)phenyl]carbamoyl}-7-(4,4,4-trifluorobutylidene)bicyclo[2.2.1]heptan-2-yl]carbamoyl}-6-methoxypyridin-3-yl)phenyl]ethyl N-cyclopropyl-carbamate] | 1.2 nM |
| CCCc1cnc(OC)c(C(=O)N[C@@H]2C3CCC(/C3=C/C(F)(F)F)[C@@H]2C(=O)Nc2ccc(F)c(C(F)(F)F)c2)n1 (stereo partly drawn) [Example 52, N-[(2R,3S,7Z)-3-{[4-fluoro-3-(trifluoromethyl)phenyl]carbamoyl}-7-(2,2,2-trifluoroethylidene)bicyclo[2.2.1]heptan-2-yl]-3-methoxy-6-propylpyrazine-2-carboxamide] | 1300 nM |
| COc1ncncc1C(=O)N[C@@H]1C2CCC(C2=C(C)C)[C@@H]1C(=O)Nc1ccc(F)c(C(F)(F)F)c1 (stereo partly drawn) [Example 10, N-[(2R,3S)-3-{[4-fluoro-3-(trifluoromethyl)phenyl]carbamoyl}-7-(propan-2-ylidene)bicyclo [2.2.1]heptan-2-yl]-4-methoxypyrimidine-5-carboxamide] | 5000 nM |
| N- ((1R,2R,3S,4R,Z)- 3-((4-fluoro-3- (trifluoromethyl) phenyl)carbamoyl)- 7-3- hydroxy- propylidene) bicyclo[2.2.1] heptan-2-yl)-5-(5- (hydroxymethyl)- 3a,5,6,6a- tetrahydro-4H- cyclopenta[d] isoxazol-3-yl)-2- methoxy- nicotinamide [Example 114] | 1.2 nM |
| COc1cc2c(cc1C(=O)N[C@@H]1C3CCC(/C3=C/C3CC3)[C@@H]1C(=O)Nc1ccc(F)c(C(F)(F)F)c1)CCN(CC(C)(C)O)C2 (stereo partly drawn) [Example 95] | 1600 nM |
| COc1ncc(C2=NOC3CC(CO)CC23)cc1C(=O)N[C@H]1[C@@H](C(=O)N[C@H](C)C2(C)CC2)[C@H]2CC[C@@H]1/C2=C\C(F)(F)F (stereo partly drawn) [Example 115, 5-(5-(hydroxymethyl)-3a,5,6,6a-tetrahydro-4H-cyclopenta[d]isoxazol-3-yl)-2-methoxy-N-((1R,2R,3S,4R,Z)-3-(((R)-1-(1-methylcyclopropyl)ethyl)carbamoyl)-7-(2,2,2-trifluoroethylidene)bicyclo[2.2.1]heptan-2-yl)nicotinamide] | 2.1 nM |
| COc1ncc(-c2cc([C@H](OC(=O)NC3CCC3)C(F)(F)F)ccc2F)cc1C(=O)N[C@@H]1C2CCC(/C2=C/CCC(F)(F)F)[C@@H]1C(=O)Nc1ccc(F)c(C(F)(F)F)c1 (stereo partly drawn) [Example 168, (1S)-2,2,2-trifluoro-1-[4-fluoro-3-(5-{[(2R,3S,7Z)-3-{[4-fluoro-3-(trifluoromethyl)phenyl]carbamoyl}-7-(4,4,4-trifluorobutylidene)bicyclo[2.2.1]heptan-2-yl]carbamoyl}-6-methoxypyridin-3-yl)phenyl]ethyl N-cyclobutyl-carbamate] | 5.3 nM |

Next, values leading:

| EC50 | Compound |
| --- | --- |
| 1.7 nM | COc1ncc(-c2cc([C@H](OC(=O)NC3CC3)C(F)(F)F)ccc2F)cc1C(=O)N[C@H]1[C@@H](C(=O)Nc2ccc(F)c(C(F)(F)F)c2)[C@H]2CC[C@@H]1/C2=C\C1CC(F)(F)C1 [Example 167, (1S)-1-[3-(5-{[(1R,2R,3S,4R, 7Z)-7-[(3,3-difluorocyclobutyl)methylidene]-3-{[4-fluoro-3-(trifluoromethyl)phenyl]carbamoyl}bicyclo[2.2.1]heptan-2-yl]carbamoyl}-6-methoxypyridin-3-yl)-4-fluorophenyl]-2,2,2-trifluoroethyl N-cyclopropyl-carbamate] |
| 4.3 nM | COc1ncc(C2=NOC3CC(C(O)C(F)(F)F)CC23)cc1C(=O)N[C@H]1[C@@H](C(=O)Nc2ccc(F)c(C(F)(F)F)c2)[C@H]2CC[C@@H]1/C2=C\C(C)C (stereo partly drawn) [Example 127, N-((1R,2R,3S,4R,Z)-3-((4-fluoro-3-(trifluoromethyl)phenyl)carbamoyl)-7-(2-methylpropylidene)bicyclo[2.2.1]heptan-2-yl)-2-methoxy-5-(5-(2,2,2-trifluoro-1-hydroxyethyl)-3a,5,6,6a-tetrahydro-4H-cyclopenta [d]isoxazol-3-yl)nicotinamide] |
| 2400 nM | COc1cc2c(cc1C(=O)N[C@H]1[C@@H](C(=O)Nc3ccc(F)c(C(F)(F)F)c3)[C@H]3CC[C@@H]1/C3=C\C1CC1)CCN(CCCO)C2 [Example 90, N-((1R,2R,3S,4R,Z)-7-(cyclopropylmethylene)-3-((4-fluoro-3-(trifluoromethyl)phenyl)carbamoyl)bicyclo[2.2.1]heptan-2-yl)-2-(3-hydroxypropyl)-7-methoxy-1,2,3,4-tetrahydroisoquinoline-6-carboxamide] |
| 8.4 nM | COc1ncc(C2=NOC3CC(C(OC(=O)Nc4ccccc4)C4CC4)CC23)cc1C(=O)N[C@@H]1C2CCC(/C2=C/C2CC(F)(F)C2)[C@@H]1C(=O)Nc1ccc(F)c(C(F)(F)F)c1 (stereo partly drawn) [Example 160, cyclopropyl[3-(5-{[(2R,3S,7Z)-7-1(3,3-difluorocyclobutyl)methylidene]-3-{[4-fluoro-3-(trifluoromethyl)phenyl]carbamoyl}bicyclo[2.2.1]heptan-2-yl]carbamoyl}-6-methoxypyridin-3-yl)-3aH,4H,5H,6H, 6aH-cyclopenta[d][1,2] oxazol-5-yl]methyl N-phenylcarbamate] |
| 0.6 nM | COc1ncc(C2=NOC3CC(C(O)C(F)(F)F)CC23)cc1C(=O)N[C@H]1[C@@H](C(=O)Nc2ccc(F)c(C(F)(F)F)c2)[C@H]2CC[C@@H]1/C2=C\C1CCCC1 (stereo partly drawn) [Example 173, N-[(1R,2R,3S,4R, 7Z)-7-(cyclopentyl-methylidene)-3-{[4-fluoro-3-(trifluoromethyl)phenyl]carbamoyl}bicyclo[2.2.1]heptan-2-yl]-2-methoxy-5-[5-(2,2,2-trifluoro-1-hydroxyethyl)-3aH,4H,5H,6H, 6aH-cyclopenta[d][1,2]oxazol-3-yl]pyridine-3-carboxamide] |
| 2.5 nM | COc1ncc(-c2cc([C@H](OC(=O)NC3CC3)C(F)(F)F)ccc2F)cc1C(=O)N[C@H]1[C@@H](C(=O)Nc2ccc(F)c(C(F)(F)F)c2)[C@H]2CC[C@@H]1/C2=C\C(C)C [Example 166, (1S)-2,2,2-trifluoro-1-[4-fluoro-3-(5-{[(1R,2R,3S,4R, 7Z)-3-{[4-fluoro-3-(trifluoromethyl)phenyl]carbamoyl}-7-(2-methylpropylidene)bicyclo[2.2.1]heptan-2-yl]carbamoyl}-6-methoxypyridin-3-yl)phenyl]ethyl N-cyclopropyl-carbamate] |
| 24 nM | COc1ncc(COC2(CO)CC2)cc1C(=O)N[C@H]1[C@@H](C(=O)Nc2ccc(F)c(C(F)(F)F)c2)[C@H]2CC[C@@H]1/C2=C\C1CC1 [Example 73, N-[(1R,2R,3S, 4R,7Z)-7-(cyclopropyl-methylidene)-3-{[4-fluoro-3-(trifluoromethyl)phenyl]carbamoyl}bicyclo[2.2.1]heptan-2-yl]-5-{[1-(hydroxymethyl)cyclopropoxy]methyl}-2-methoxypyridine-3-carboxamide] |
| 3.7 nM | COc1ncc(C2=NOC3COCC23)cc1C(=O)N[C@H]1[C@@H](C(=O)Nc2ccc(F)c(C(F)(F)F)c2)[C@H]2CC[C@@H]1/C2=C\C1CC1 (single isomer, unassigned) [Example 61] |
